Experiments:
Plasmodium falciparum [1] = experiment: ST_JUDE: Plasmodium falciparum K1 EC50 (uM) as measured by SYBR green dye; assay type: functional, organism-based
Plasmodium falciparum [2] = experiment: ST_JUDE: Plasmodium falciparum 3D7 EC50 (uM) as measured by SYBR green dye; assay type: functional, organism-based

SMILES | EC50 (Plasmodium falciparum [1]) [µM] | EC50 (Plasmodium falciparum [2]) [µM]
O=C(Nc1cccc(C(F)(F)F)c1)c1cc2ccccc2oc1=O | > 15 | > 15
CC(=O)Nc1ccc(S(=O)(=O)Nc2ccc(Nc3nc(C)cc(N(C)C)n3)cc2)cc1 | 6.27 | 1.95
COc1ccccc1C1CC(c2ccccc2)=NN1C(=O)c1ccccc1 (stereo not drawn) | 4.32 | 0.855
Cc1ccc(Nc2nc(NCc3ccccc3)c3ccccc3n2)cc1 | 3.6 | 0.754
CCCC(=O)NC(c1cccc([N+](=O)[O-])c1)c1ccc2cccnc2c1O (stereo not drawn) | 2.48 | 2.88
O=C(O)/C=C1\SC(=O)NC1=O | > 15 | > 15
Cc1ccc(C)c(C(C)NC(=S)Nc2ccc([N+](=O)[O-])cc2)c1 (stereo not drawn) | 3.36 | > 15
CN1c2ccccc2N(C)C1c1ccc(Sc2ccc(C3N(C)c4ccccc4N3C)o2)o1 | 1.65 | > 15
CCN(CC)CCn1c(=N)n(CCOc2ccc(Cl)cc2Cl)c2ccccc21 | 7.48 | > 15
CCN(CC)c1cc(C)c2cc(NC(=O)c3ccc(F)cc3)ccc2n1 | > 15 | > 15
CSc1nc(N)c2c(n1)N=C1CC(C)(C)CC(O)=C1C2c1cccs1 (stereo not drawn) | > 15 | > 15
COc1cccc(Nc2nc(N3CCN(CCO)CC3)nc3c2cnn3-c2ccccc2)c1 | 4.71 | 3.31
Cc1ccc(CN2CCN(Cc3c(C)nn(C)c3Cl)CC2CCO)cc1 (stereo not drawn) | > 15 | > 15
Cc1nc2ccc(OCC(C)C)cc2c(O)c1CN(C)C1CCN(C)CC1 | > 15 | > 15
N#Cc1cccc(NC(=O)C2c3ccccc3C(=O)N(C3CCCC3)C2c2cccs2)c1 (stereo not drawn) | 0.253 | 0.188
CCOc1ccccc1/C=C/C(=O)Nc1ccc2nc(N3CCN(C)CC3)cc(C)c2c1 | > 15 | 0.437
O=C(CCc1ccccc1)N(Cc1cccnc1)c1nc2ccc(F)cc2s1 | > 15 | > 15
Cc1cc(C)c(C)c(OCCCCCCN2CCCC2)c1 | > 15 | > 15
COC(=O)C1C(=O)C2=C(CC1C)NC(=O)CC2c1ccc([N+](=O)[O-])cc1 (stereo not drawn) | 1.66 | 3.01
CCO/C(O)=C1\C(CC)=NC2=C(C(=O)CC(C)(C)C2)C1c1ccc(Cl)cc1Cl (stereo not drawn) | 1.22 | 1.33
Cc1ccc(-c2nc(C(=O)N(C)Cc3cccnc3)cs2)cc1F | 5.12 | 4.36
CN(CCO)CCCCOc1ccc2c(c1)C(=O)c1cc(OCCCCN(C)CCO)ccc1-2 | 3.64 | > 15

SMILES | EC50 (Plasmodium falciparum [1]) [µM] | EC50 (Plasmodium falciparum [2]) [µM]
O=C(Nc1ccccc1O)c1ccc(-c2ccc(Cl)cc2Cl)o1 | > 15 | 2.46
O=C(Nc1ccc(Cl)c(Cl)c1)Nc1ccc(Cl)c([N+](=O)[O-])c1 | > 15 | > 15
O=C(C1CCCCC1)N(Cc1cccnc1)c1nc2c(Cl)cccc2s1 | 2.33 | 2.36
Cc1cccc(-n2ccnc2SCC(=O)Nc2cccc(C(F)(F)F)c2)c1C | 1.81 | 0.836
COc1ccc(C2CC(=O)C3=C(C2)NC(=O)CC3c2ccc(SC)cc2)cc1OC (stereo not drawn) | 4.79 | 3.65
CCc1ccc(Oc2c(C(F)(F)F)oc3c(CN4CCOCC4)c(O)ccc3c2=O)cc1 | > 15 | > 15
Cc1cccc2sc(NNC(=O)c3ccc(S(=O)(=O)N4CCCCC4C)cc3)nc12 (stereo not drawn) | > 15 | > 15
CC1CCN(Cc2cc(COCc3ccccc3)c3cccnc3c2O)CC1 | 3.19 | 2.87
COc1ccc(OC)c2sc(N(Cc3cccnc3)C(=O)c3cccc(C)c3)nc12 | 2.33 | > 15
COc1cccc(C2Nc3ccc(C(C)=O)cc3C3C=CCC32)c1OC (stereo not drawn) | 8.22 | 3.42
CCCC(=O)N1CCN(c2ccc(NC(=O)c3cccc(OCC)c3)cc2Cl)CC1 | > 15 | > 15
Cc1cc(C)nc(/N=C(\N)Nc2ccc(Cl)cc2C(=O)c2ccccc2)n1 | 8.05 | 3.59
CN(C)CCCNCc1ccc2[nH]c3c(c2c1)CCCC3 | > 15 | 3.4
CCOc1cc(/C=N/N=C(N)N)ccc1OCc1ccccc1 | 6.56 | 0.867
O=C(O)c1ccc(NC2=C(n3nnc4ccccc43)C(=O)c3ccccc3C2=O)cc1 | 1.49 | > 15
Oc1ccc(Br)cc1CN1CCN(Cc2ccccc2C(F)(F)F)CC1 | 0.45 | 1.88
COC(=O)c1ccc(NC(=O)CSc2ccc3nnc(-c4ccc(C)cc4)n3n2)cc1 | > 15 | > 15
CCOC(=O)c1cnc2ccc(OC)cc2c1NCCCN1CCOCC1 | 4.38 | 5.94
CCCN1CCN(CCCNC(=S)Nc2ccc3nc(N4CCN(C)CC4)cc(C)c3c2)CC1 | 6.85 | 5.43
CCCCN(C)Cc1c(C)nc2ccc(OCc3ccccc3)cc2c1O | > 15 | > 15
Oc1ccc(Br)cc1CN1CCN(Cc2ccc(Cl)cc2)CC1 | 0.215 | 1.48
CCC1(C)CC(CCNCc2ccc(F)cc2)(c2ccc(F)cc2)CCO1 (stereo not drawn) | 0.518 | 1.15

SMILES | EC50 (Plasmodium falciparum [1]) [µM] | EC50 (Plasmodium falciparum [2]) [µM]
O=C(Nc1cccc(Br)c1)C1(c2ccccc2)CC1(Cl)Cl (stereo not drawn) | 3.11 | 4.43
COc1ccc(/C=C/c2cc[n+](C)cc2)cc1 | 3.82 | 3.4
Cc1ccc(C)c(NC(=O)c2c(-c3c(Cl)cccc3Cl)noc2C)c1 | 4.36 | 0.537
CCC(C)c1ccccc1OCC(O)CNC1CCCC1 (stereo not drawn) | 0.959 | 1.73
Cc1ccnc(N2C(=O)c3ccccc3C2Nc2ccccc2C)c1 (stereo not drawn) | > 15 | > 15
Cc1cccc(C2Sc3ccccc3N=C3C2=C(O)c2ccccc23)c1 (stereo not drawn) | 1.77 | 1.89
Cc1cccc(NC(=O)c2cc3ccccc3cc2O)c1 | 0.602 | 1.15
COc1ccc(Cl)cc1NC(=O)C1c2ccccc2C(=O)N(CC(C)C)C1c1cccs1 (stereo not drawn) | 0.386 | 0.367
Cc1ccc(N2C(=O)C(Cl)=C(Nc3ccccc3C)C2=O)c(C)c1 | > 15 | > 15
CCc1ccc(CN2CCC(n3nccc3NC(=O)Nc3ccccc3C)CC2)cc1 | > 15 | 6.75
Cc1cc(N(C)C)nc(Nc2ccc(NS(=O)(=O)c3cc(C(C)C)ccc3C)cc2)n1 | 3.35 | 1.55
O=C(Cc1ccc(Cl)cc1)Nc1ccc(-c2nc3ccccc3[nH]2)cc1 | > 15 | > 15
Oc1cccc2ccc[n+](CC(O)Cn3c4ccccc4c4ccccc43)c12 (stereo not drawn) | > 15 | 1.31
Cc1cccc(NC(c2ccc(Cl)cc2)c2ccc3cccnc3c2O)n1 (stereo not drawn) | 3.14 | 3.54
COc1ccc(C(O)(CCC(C)C)C(CN2CCOCC2)c2ccccc2)cc1 (stereo not drawn) | 3.27 | 3.67
CCCCCC(O)(c1ccccc1)C(CN1CCOCC1)c1ccccc1 (stereo not drawn) | 2.04 | 3.26
CC(=O)N(C1=C(N2CCCCC2)C(=O)c2ccccc2C1=O)c1ccc(C)cc1 | 4.48 | 7.46
CCOC(=O)C1=C(CN(C)c2ccc(F)cc2)NC(=O)NC1c1ccc(F)cc1 (stereo not drawn) | 1.23 | 3.51
CN(C)c1cc[n+](CC(=O)c2ccc(Cl)cc2)cc1 | 1.74 | 2.44
CCC1=[N+](C)c2cccc3cccc(c23)N1C | 4.41 | 5.13

From ChEMBL document CHEMBL1154198, “Chemical genetics of Plasmodium falciparum” (Nature, 2010)
